This assay has as its target Integrin alpha-4/beta-7 (Homo sapiens, UniProt P13612+P26010). As to the kind of experiment: Inhibition of α4β7 and α4β1 Integrins. As for the experimental part:
MAdCAM (R&D Systems, 0.1 ug) was diluted in 50 μL PBS, added to each well of an opaque ELISA plate (Thermo), and incubated overnight at 4° C. Coated plates were washed once with PBS and then blocked with 200 μL of assay buffer (10 mM HEPES, 150 mM NaCl, 1 mM MnCl2, 0.1 mM CaCl2), 1% BSA) for 1 hour at 37° C. and 5% CO2. After incubation, buffer was aspirated from the plates and 50 μL of fresh assay buffer is added. Compounds were added by a compouns dispenser (Tecan) and DMSO concentration was normalized to 1% across each plate. 50 μL of RPMI-8866 cells (2×10^6 per mL) were added to each well and the plates were incubated for 1 hour at 37° C. and 5% CO2. After incubation, plates were allowed to cool to RT for 10 minutes before being washed four times in assay buffer by an automated plate washer (BioTek). After washing, 100 μL of a 1:1 mixture of assay buffer and CellTiter GLO 2.0 reagent (Promega) were added to each well. Plates were mixed for 2 minutes at 1000 rpm and then allowed to incubate an additional 10 minutes before reading out luminescence on a Tecan Spark plate reader. Raw data was converted to percent inhibition based on DMSO only and control compound wells, and curves were analyzed by 4-parameter fit within Dotmatics software.

The structures appear in SMILES notation.

Chain of Integrin alpha-4/beta-7 (P13612 whole entry): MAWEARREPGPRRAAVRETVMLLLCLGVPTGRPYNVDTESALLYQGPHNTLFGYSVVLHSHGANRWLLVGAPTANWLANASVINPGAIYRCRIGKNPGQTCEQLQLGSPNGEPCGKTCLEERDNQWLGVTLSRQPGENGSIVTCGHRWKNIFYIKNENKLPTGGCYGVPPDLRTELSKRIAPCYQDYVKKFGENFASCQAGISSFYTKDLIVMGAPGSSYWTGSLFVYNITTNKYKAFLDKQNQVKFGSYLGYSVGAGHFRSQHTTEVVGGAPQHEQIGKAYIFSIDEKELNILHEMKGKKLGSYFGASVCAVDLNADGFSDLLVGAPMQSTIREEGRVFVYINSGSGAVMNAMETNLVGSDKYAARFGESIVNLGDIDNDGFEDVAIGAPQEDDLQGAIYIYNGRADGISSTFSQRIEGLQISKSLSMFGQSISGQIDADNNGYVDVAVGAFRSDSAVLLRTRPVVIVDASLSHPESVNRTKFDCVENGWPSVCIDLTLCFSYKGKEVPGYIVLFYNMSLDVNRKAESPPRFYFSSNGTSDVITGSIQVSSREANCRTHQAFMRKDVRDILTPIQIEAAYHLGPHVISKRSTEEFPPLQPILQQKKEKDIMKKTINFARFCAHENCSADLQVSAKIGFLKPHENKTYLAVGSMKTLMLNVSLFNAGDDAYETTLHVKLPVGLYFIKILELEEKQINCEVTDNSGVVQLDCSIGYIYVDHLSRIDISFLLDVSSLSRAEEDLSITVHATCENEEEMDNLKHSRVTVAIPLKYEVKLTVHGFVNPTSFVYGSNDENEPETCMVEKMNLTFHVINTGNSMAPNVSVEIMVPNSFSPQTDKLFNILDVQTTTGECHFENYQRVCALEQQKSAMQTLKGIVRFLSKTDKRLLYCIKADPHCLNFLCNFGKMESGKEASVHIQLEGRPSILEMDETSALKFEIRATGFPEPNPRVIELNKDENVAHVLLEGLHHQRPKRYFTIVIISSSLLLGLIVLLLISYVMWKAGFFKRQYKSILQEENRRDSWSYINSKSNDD
Chain of Integrin alpha-4/beta-7 (P26010 whole entry): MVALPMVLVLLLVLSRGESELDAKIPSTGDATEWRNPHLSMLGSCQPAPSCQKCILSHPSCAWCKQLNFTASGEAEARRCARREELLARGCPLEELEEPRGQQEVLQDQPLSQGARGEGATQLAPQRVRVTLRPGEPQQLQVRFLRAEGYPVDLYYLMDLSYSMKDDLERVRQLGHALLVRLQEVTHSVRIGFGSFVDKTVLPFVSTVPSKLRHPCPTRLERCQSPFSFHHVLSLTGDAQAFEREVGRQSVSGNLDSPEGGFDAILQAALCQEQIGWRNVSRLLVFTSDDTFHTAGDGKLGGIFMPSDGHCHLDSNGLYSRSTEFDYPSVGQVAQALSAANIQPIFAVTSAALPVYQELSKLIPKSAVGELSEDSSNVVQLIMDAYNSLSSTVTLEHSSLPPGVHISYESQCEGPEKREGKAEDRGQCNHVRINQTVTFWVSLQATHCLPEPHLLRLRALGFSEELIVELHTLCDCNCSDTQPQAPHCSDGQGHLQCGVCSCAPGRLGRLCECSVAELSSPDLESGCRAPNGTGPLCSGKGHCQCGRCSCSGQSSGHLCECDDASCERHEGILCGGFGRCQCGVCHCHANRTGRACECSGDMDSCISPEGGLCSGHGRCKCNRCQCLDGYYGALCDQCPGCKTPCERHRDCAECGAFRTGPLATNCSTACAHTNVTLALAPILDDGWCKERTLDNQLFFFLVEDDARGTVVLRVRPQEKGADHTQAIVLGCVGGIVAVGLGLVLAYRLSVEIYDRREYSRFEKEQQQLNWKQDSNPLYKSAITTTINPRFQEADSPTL

As for `Cn1ccc(C(F)(F)F)c(-c2nccc3c(C[C@H](NC(=O)c4c(F)cc(N(CC(F)(F)F)CC(F)(F)F)cc4F)C(=O)O)cccc23)c1=O` [US20250313535, Compound 237], the IC50 (commonly the concentration needed to halve the response being measured) is less than 10 nM.
Compound `Cn1c(=O)c(-c2cccc3c(C[C@H](NC(=O)c4c(F)cc(NC5CCC(F)(F)C5)cc4F)C(=O)O)cccc23)c(C(F)(F)F)c2ccccc21` (some centres not stated) [US20250313535, Compound 386] had an IC50 of more than 100 nM.

These data come from BindingDB's records for patent US20250313535 (Dice Molecules Sv, 2025).
